According to paper PMC10115881, “Disrupting the α-synuclein-ESCRT interaction with a peptide inhibitor mitigates neurodegeneration in preclinical models of Parkinson’s disease” (Nature Communications, 2023):
“And” between values parts separate entries of the source, which are not always exact repeats. Identical values can stand only once.

Experiments:
endogenous a-syn = test: Endogenous a-syn immunofluorescence in rat cortical neurons; format: cell-based
Source text: Pregnant rats (E17) of the Sprague-Dawley strain were purchased from Envigo. Embryos were surgically removed from the mothers and cortices dissected in Hanks Balanced salt solution (Gibco). The meninges were removed, and cells were dissociated using a papain dissociation system (Worthington) before being resuspended in Neurobasal medium A supplemented with antibiotic-antimycotic solution (Gibco), L-glutamine substitute (GlutaMAX™; Gibco) and factor B27 (Gibco). […]
After fixation, cells were permeabilized with 0.2% Triton-X-100 for 15 min, washed three times with PBS and then incubated with blocking solution (1% BSA, 22.52 mg/mL glycine, 0.1% Tween-20 in PBS or 0.4% saponin, 1% BSA, and 5% goat or donkey serum in PBS) for 1 h. […] Following another three washes with PBS, nuclei were counterstained with DAPI (ThermoFisher) and then coverslips were mounted on slides using Dako fluorescence mounting medium (Agilent) and sealed using clear nail varnish.
(§1) Confocal images of immunofluorescent staining were acquired with a Zeiss LSM880 confocal microscope equipped with 405, 488, 555, and 639 nm laser lines. All images were taken within the linear range at constant gain and pinhole settings at optimal resolution settings determined by the software. […]

V1S/SV2 a-syn rats = test: AAV-V1S/SV2 a-syn oligomer rat model; format: in vivo
Procedure: Adult female Sprague-Dawley rats (250–280 g; Envigo) were pair-housed in cages with wood bedding and had access to food and water ad libitum. The animal colony was maintained in a regular 12 h light/dark cycle. All procedures were approved by the University Health Network Animal Care Committee in accordance with guidelines and regulations set by the Canadian Council on Animal Care (AUP #3818).
Animals were secured in a stereotactic frame under isoflurane/oxygen anesthesia and ketoprofen (5 mg/kg) analgesia. The surgical site was shaved and sterilized with iodine/betadine prior to making a 2 cm incision along the midline. The scalp was exposed and a unilateral injection targeting the SN was performed at coordinates AP −5.2 mm, ML −2 mm and DV −7.5 mm with respect to the bregma as a point of reference. For each animal, a total volume of 2 μl of virus was injected at a rate of 0.5 μl/min using a microinjection pump and 10 μl Hamilton syringe with a 26-gauge needle. […] At the end of virus injection, the needle remained in place for 5 min before gradual removal.
Sections were then incubated in blocking solution (1% or 2% BSA, 10% normal goat serum in PBS-T) for 1 h. After blocking, sections were incubated with primary antibodies in antibody solution (2% normal goat serum in PBS-T) overnight at RT. Sections were then washed in PBS or PBS-T and incubated with secondary antibodies diluted in antibody solution for 1 h in the dark at room temperature. Sections were then mounted onto glass slides and allowed to dry and then Dako fluorescence mounting medium (Agilent) was applied, followed by coverslips.
Confocal images of immunofluorescent staining were acquired with a Zeiss LSM880 confocal microscope equipped with 405, 488, 555, and 639 nm laser lines. All images were taken within the linear range at constant gain and pinhole settings at optimal resolution settings determined by the software. For primary cortical neurons and iPSC-derived dopaminergic neurons, the software was programmed to acquire an image every 1 μm for a total of 11 μm, capturing all of the neurons visible in the z-plane in each field of view using a ×63 objective. At least 30 images were acquired for each treatment group from three independent experiments. For animal experiments, the whole midbrain or striatum regions were imaged using a ×5 or ×10 objective. Ten serial coronal midbrain sections were imaged per animal, separated by 240 μm intervals. […]
Confocal images of immunofluorescent staining of midbrain sections were processed using HALO software (Indica Labs), which is a well validated tool for automatic quantification of neurons in brain tissue sections[70]–[72]. […] Fluorescent intensity and area were then assessed in this ROI.

[1] = tested on: LAMP1 in iPSC-derived dopaminergic neurons; test: LAMP1 fluorescence in iPSC-derived dopaminergic neurons; format: cell-based, human; conditions: A53T a-syn iPSC-derived dopaminergic neurons
Procedure: A53T a-syn iCell Dopa neurons (catalog #R1109) and isogenic control iCell Dopa neurons (catalog #R1088) were purchased from Fujifilm Cellular Dynamics (Madison, WI, USA) and cultured as per the manufacturer’s instructions. Briefly, cells were plated in complete maintenance medium provided by the manufacturer on poly-L-ornithine/laminin coated μ plates (ibidi). Cells recovered from thawing for 24 h and then were transduced with AAV-Scramble1.3-RFP or AAV-PDpep1.3-RFP at MOI of 3000 for 48 h at which time media was completely changed. Cells were fixed using 4% PFA at 7 days post-plating.
as §1
Confocal images of primary cortical neurons, iPSC-derived dopaminergic neurons, and LAMP1 staining within the SN were processed using Imaris software (Oxford instruments). […] Mean pixel intensity per GFP^+ cell (for experiments using GFP-tagged peptides) or RFP^+ cell (for experiments using RFP-tagged peptides) was calculated for a-syn or LAMP1 signal using the software’s surfaces module. […]

## DEEIERQLKALG [PDpep1.3]
Endogenous a-syn
  Effect on endogenous a-syn fluorescence: reduced fluorescence intensity
V1S/SV2 a-syn rats; 6 weeks post-injection, SN
  Effect on a-syn oligomer levels, YFP positive area: significant reduction in a-syn oligomer levels
V1S/SV2 a-syn rats; V1S/SV2, 6 weeks, individual rats
  TH fluorescence in striatum: 0.2276 and 0.1447 and 0.1385 and 0.1997 and 0.2935 and 0.176 and 0.1626 and 0.2047 and 0.2584 and 0.2974
V1S/SV2 a-syn rats; V1S/SV2, 6 weeks, n = 8–9 rats/group
  YFP mean fluorescence intensity in TH+ and RFP+ SN cells: 0.063 ± 0.0167 RFU
V1S/SV2 a-syn rats; V1S/SV2 rats
  Effect on pS129 a-syn in striatum: reduced pS129 a-syn accumulation in the striatum
[1]
  Effect on LAMP1 levels, iPSC neurons: LAMP1 levels to those of isogenic controls
